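Compound exposure: 48 hours, 5 concentrations, 96-well plates. Abbreviation: GI50, concentration required for 50% inhibition of growth. At the TGI there is no net growth.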
Tests used:
Experiment in all cases: DTP human tumour cell line panel, 48 h; in the data active means GI50 below about 0.43 µM; inactive means the rest
NCI-H226 lung = test system: NCI-H226 lung
TK-10 renal = test system: TK-10 renal
COLO 205 colon = test system: COLO 205 colon
NCI/ADR-RES ovarian = test system: NCI/ADR-RES ovarian
MDA-MB-435 = test system: MDA-MB-435
UO-31 renal = test system: UO-31 renal
MOLT-4 leukemia = test system: MOLT-4 leukemia
M14 melanoma = test system: M14 melanoma
NCI-H460 lung = test system: NCI-H460 lung
DU-145 prostate = test system: DU-145 prostate
KM12 colon = test system: KM12 colon
HOP-62 NSCLC = test system: HOP-62 NSCLC
SW-620 colon = test system: SW-620 colon
OVCAR-5 ovarian = test system: OVCAR-5 ovarian
786-0 renal = test system: 786-0 renal
HCC-2998 colon = test system: HCC-2998 colon
HCT-116 colon = test system: HCT-116 colon
HOP-92 NSCLC = test system: HOP-92 NSCLC
PC-3 prostate = test system: PC-3 prostate
T-47D breast = test system: T-47D breast
HL-60(TB) leukemia = test system: HL-60(TB) leukemia
SNB-75 CNS = test system: SNB-75 CNS
HT29 colon = test system: HT29 colon
MCF7 breast = test system: MCF7 breast
NCI-H23 lung = test system: NCI-H23 lung
SNB-19 CNS = test system: SNB-19 CNS
MDA-N = test system: MDA-N
SK-MEL-5 melanoma = test system: SK-MEL-5 melanoma
SK-MEL-2 melanoma = test system: SK-MEL-2 melanoma
ACHN renal = test system: ACHN renal
HCT-15 colon = test system: HCT-15 colon
SK-OV-3 ovarian = test system: SK-OV-3 ovarian
SF-295 CNS = test system: SF-295 CNS
UACC-257 melanoma = test system: UACC-257 melanoma
IGROV1 ovarian = test system: IGROV1 ovarian
SF-539 CNS = test system: SF-539 CNS
OVCAR-3 ovarian = test system: OVCAR-3 ovarian
A549 NSCLC = test system: A549 NSCLC
U251 CNS = test system: U251 CNS
OVCAR-4 ovarian = test system: OVCAR-4 ovarian
SK-MEL-28 melanoma = test system: SK-MEL-28 melanoma
SN12C renal = test system: SN12C renal
LOX IMVI melanoma = test system: LOX IMVI melanoma
EKVX NSCLC = test system: EKVX NSCLC
MDA-MB-231 breast = test system: MDA-MB-231 breast
OVCAR-8 ovarian = test system: OVCAR-8 ovarian
HS 578T breast = test system: HS 578T breast
SF-268 CNS = test system: SF-268 CNS
UACC-62 melanoma = test system: UACC-62 melanoma
NCI-H522 lung = test system: NCI-H522 lung
MALME-3M melanoma = test system: MALME-3M melanoma
SR leukemia = test system: SR leukemia
A498 renal = test system: A498 renal
RPMI-8226 leukemia = test system: RPMI-8226 leukemia
K-562 leukemia = test system: K-562 leukemia
BT-549 breast = test system: BT-549 breast
CAKI-1 renal = test system: CAKI-1 renal
CCRF-CEM leukemia = test system: CCRF-CEM leukemia
RXF 393 renal = test system: RXF 393 renal

CC1(C)CC(=O)C(/C=N/c2nc(-c3ccccc3)cs2)=C(O)C1
87.9 µM: TGI (IGROV1 ovarian)
64.7 µM: TGI (SF-539 CNS)
> 100 µM: TGI (NCI-H226 lung) | TGI (TK-10 renal) | TGI (COLO 205 colon) | TGI (NCI/ADR-RES ovarian) | TGI (UO-31 renal) | TGI (MOLT-4 leukemia) | TGI (M14 melanoma) | TGI (NCI-H460 lung) | TGI (DU-145 prostate) | TGI (KM12 colon) | TGI (HOP-62 NSCLC) | TGI (SW-620 colon) | TGI (OVCAR-5 ovarian) | TGI (786-0 renal) | TGI (HCC-2998 colon) | TGI (HCT-116 colon) | TGI (HOP-92 NSCLC) | TGI (PC-3 prostate) | TGI (T-47D breast) | TGI (HL-60(TB) leukemia) | TGI (SNB-75 CNS) | TGI (HT29 colon) | TGI (MCF7 breast) | TGI (NCI-H23 lung) | TGI (SNB-19 CNS) | TGI (MDA-N) | TGI (SK-MEL-5 melanoma) | TGI (SK-MEL-2 melanoma) | TGI (ACHN renal) | TGI (SK-OV-3 ovarian) | TGI (SF-295 CNS) | TGI (UACC-257 melanoma) | TGI (OVCAR-3 ovarian) | TGI (A549 NSCLC) | TGI (U251 CNS) | TGI (OVCAR-4 ovarian) | TGI (SK-MEL-28 melanoma) | TGI (SN12C renal) | TGI (LOX IMVI melanoma) | TGI (EKVX NSCLC) | TGI (OVCAR-8 ovarian)
73.6 µM: TGI (MDA-MB-435)
96.8 µM: TGI (MDA-MB-231 breast)
63.7 µM: TGI (HCT-15 colon)

COc1cc(/C=C2\CN(C)CC3=C2NC(=S)NC3c2cc(OC)c(OC)c(OC)c2)cc(OC)c1OC (stereo not given)
65.7 µM: TGI (SK-MEL-5 melanoma)
> 100 µM: TGI (COLO 205 colon) | TGI (NCI/ADR-RES ovarian) | TGI (HS 578T breast) | TGI (MOLT-4 leukemia) | TGI (M14 melanoma) | TGI (NCI-H460 lung) | TGI (DU-145 prostate) | TGI (HOP-62 NSCLC) | TGI (SW-620 colon) | TGI (786-0 renal) | TGI (HOP-92 NSCLC) | TGI (SF-268 CNS) | TGI (UACC-62 melanoma) | TGI (PC-3 prostate) | TGI (T-47D breast) | TGI (NCI-H522 lung) | TGI (SNB-75 CNS) | TGI (HT29 colon) | TGI (MDA-N) | TGI (SK-MEL-2 melanoma) | TGI (ACHN renal) | TGI (MALME-3M melanoma) | TGI (HCT-15 colon) | TGI (SK-OV-3 ovarian) | TGI (SF-295 CNS) | TGI (UACC-257 melanoma) | TGI (IGROV1 ovarian) | TGI (OVCAR-3 ovarian) | TGI (A549 NSCLC) | TGI (OVCAR-4 ovarian) | TGI (SN12C renal) | TGI (LOX IMVI melanoma) | TGI (SR leukemia) | TGI (EKVX NSCLC) | TGI (MDA-MB-231 breast) | TGI (OVCAR-8 ovarian)

Nc1nc(-c2cccc(Cl)c2)c(-c2ccc3ncccc3n2)s1
inactive: GI50 (NCI-H226 lung) > 22 µM | GI50 (TK-10 renal) > 17.2 µM | GI50 (COLO 205 colon) > 25 µM | GI50 (NCI/ADR-RES ovarian) > 25 µM | GI50 (HS 578T breast) > 25 µM | GI50 (MDA-MB-435) > 25 µM | GI50 (UO-31 renal) 10.1 µM | GI50 (MOLT-4 leukemia) > 25 µM | GI50 (M14 melanoma) > 25 µM | GI50 (NCI-H460 lung) > 25 µM | GI50 (DU-145 prostate) > 25 µM | GI50 (KM12 colon) > 25 µM | GI50 (A498 renal) 8.4 µM | GI50 (RPMI-8226 leukemia) > 25 µM | GI50 (HOP-62 NSCLC) > 25 µM | GI50 (K-562 leukemia) > 25 µM | GI50 (SW-620 colon) > 25 µM | GI50 (OVCAR-5 ovarian) > 25 µM | GI50 (786-0 renal) > 25 µM | GI50 (HCC-2998 colon) > 25 µM | GI50 (HCT-116 colon) > 25 µM | GI50 (HOP-92 NSCLC) > 24 µM | GI50 (SF-268 CNS) > 25 µM | GI50 (UACC-62 melanoma) > 25 µM | GI50 (PC-3 prostate) > 25 µM | GI50 (T-47D breast) 5.88 µM | GI50 (NCI-H522 lung) > 25 µM | GI50 (HL-60(TB) leukemia) > 25 µM | GI50 (SNB-75 CNS) > 25 µM | GI50 (HT29 colon) > 25 µM | GI50 (BT-549 breast) > 25 µM | GI50 (MCF7 breast) > 25 µM | GI50 (NCI-H23 lung) > 25 µM | GI50 (CAKI-1 renal) > 25 µM | GI50 (SNB-19 CNS) > 25 µM | GI50 (SK-MEL-5 melanoma) > 19.6 µM | GI50 (CCRF-CEM leukemia) > 25 µM | GI50 (SK-MEL-2 melanoma) > 25 µM | GI50 (ACHN renal) > 25 µM | GI50 (MALME-3M melanoma) > 25 µM | GI50 (HCT-15 colon) > 25 µM | GI50 (SK-OV-3 ovarian) > 25 µM | GI50 (SF-295 CNS) > 25 µM | GI50 (UACC-257 melanoma) > 25 µM | GI50 (IGROV1 ovarian) 22.4 µM | GI50 (SF-539 CNS) > 25 µM | GI50 (OVCAR-3 ovarian) > 25 µM | GI50 (A549 NSCLC) > 25 µM | GI50 (U251 CNS) > 25 µM | GI50 (OVCAR-4 ovarian) > 25 µM | GI50 (SK-MEL-28 melanoma) > 25 µM | GI50 (SN12C renal) > 25 µM | GI50 (LOX IMVI melanoma) > 25 µM | GI50 (SR leukemia) > 25 µM | GI50 (EKVX NSCLC) > 25 µM | GI50 (MDA-MB-231 breast) > 25 µM | GI50 (RXF 393 renal) > 25 µM | GI50 (OVCAR-8 ovarian) > 25 µM
> 25 µM: TGI (NCI-H226 lung) | TGI (TK-10 renal) | TGI (COLO 205 colon) | TGI (NCI/ADR-RES ovarian) | TGI (HS 578T breast) | TGI (MDA-MB-435) | TGI (UO-31 renal) | TGI (MOLT-4 leukemia) | TGI (M14 melanoma) | TGI (NCI-H460 lung) | TGI (DU-145 prostate) | TGI (KM12 colon) | TGI (A498 renal) | TGI (RPMI-8226 leukemia) | TGI (HOP-62 NSCLC) | TGI (K-562 leukemia) | TGI (SW-620 colon) | TGI (OVCAR-5 ovarian) | TGI (786-0 renal) | TGI (HCC-2998 colon) | TGI (HCT-116 colon) | TGI (HOP-92 NSCLC) | TGI (SF-268 CNS) | TGI (UACC-62 melanoma) | TGI (PC-3 prostate) | TGI (T-47D breast) | TGI (NCI-H522 lung) | TGI (HL-60(TB) leukemia) | TGI (SNB-75 CNS) | TGI (HT29 colon) | TGI (BT-549 breast) | TGI (MCF7 breast) | TGI (NCI-H23 lung) | TGI (CAKI-1 renal) | TGI (SNB-19 CNS) | TGI (SK-MEL-5 melanoma) | TGI (CCRF-CEM leukemia) | TGI (SK-MEL-2 melanoma) | TGI (ACHN renal) | TGI (MALME-3M melanoma) | TGI (HCT-15 colon) | TGI (SK-OV-3 ovarian) | TGI (SF-295 CNS) | TGI (UACC-257 melanoma) | TGI (IGROV1 ovarian) | TGI (SF-539 CNS) | TGI (OVCAR-3 ovarian) | TGI (A549 NSCLC) | TGI (U251 CNS) | TGI (OVCAR-4 ovarian) | TGI (SK-MEL-28 melanoma) | TGI (SN12C renal) | TGI (LOX IMVI melanoma) | TGI (SR leukemia) | TGI (EKVX NSCLC) | TGI (MDA-MB-231 breast) | TGI (RXF 393 renal) | TGI (OVCAR-8 ovarian)

CC(C)(C)[Si](C)(C)OCC1OC(n2cc(I)c(N)nc2=O)C(O[Si](C)(C)C(C)(C)C)C1O[Si](C)(C)C(C)(C)C (stereo not given)
27.6 µM: TGI (HOP-62 NSCLC)
20.3 µM: TGI (HT29 colon)
16.9 µM: TGI (M14 melanoma)
26.9 µM: TGI (MDA-N)
23.2 µM: TGI (SK-MEL-5 melanoma)
37.1 µM: TGI (HOP-92 NSCLC)
36.3 µM: TGI (COLO 205 colon)
16.5 µM: TGI (NCI-H522 lung)
9.09 µM: TGI (786-0 renal)
32.8 µM: TGI (SK-OV-3 ovarian)
25.7 µM: TGI (SK-MEL-2 melanoma)
31.7 µM: TGI (MDA-MB-231 breast)
22 µM: TGI (NCI-H460 lung) | TGI (ACHN renal)
34.6 µM: TGI (MALME-3M melanoma)
38.4 µM: TGI (EKVX NSCLC)
24 µM: TGI (HCT-116 colon) | TGI (OVCAR-3 ovarian)
28.8 µM: TGI (SF-268 CNS)
> 100 µM: TGI (NCI/ADR-RES ovarian) | TGI (SW-620 colon) | TGI (LOX IMVI melanoma)
39.9 µM: TGI (HCT-15 colon)
10.6 µM: TGI (MOLT-4 leukemia)
28 µM: TGI (SNB-75 CNS)
30.6 µM: TGI (OVCAR-8 ovarian)
20.8 µM: TGI (A549 NSCLC)
23.7 µM: TGI (UACC-62 melanoma)
26.7 µM: TGI (UACC-257 melanoma)
36.6 µM: TGI (HS 578T breast)
81.7 µM: TGI (SR leukemia)
25 µM: TGI (PC-3 prostate)
26.6 µM: TGI (SN12C renal)
20.6 µM: TGI (IGROV1 ovarian)
11.2 µM: TGI (SF-295 CNS)
28.6 µM: TGI (DU-145 prostate)
